How the values were obtained:
Conditions in all cases: Compound concentration 1000.0 nM
[1] = tested on: Tyrosine-protein kinase ABL1 (Homo sapiens), P00519 [T315I]
[2] = target: T1, Calcium/calmodulin-dependent protein kinase type IV (Homo sapiens) (UniProt Q16566)
T1 sequence (whole entry): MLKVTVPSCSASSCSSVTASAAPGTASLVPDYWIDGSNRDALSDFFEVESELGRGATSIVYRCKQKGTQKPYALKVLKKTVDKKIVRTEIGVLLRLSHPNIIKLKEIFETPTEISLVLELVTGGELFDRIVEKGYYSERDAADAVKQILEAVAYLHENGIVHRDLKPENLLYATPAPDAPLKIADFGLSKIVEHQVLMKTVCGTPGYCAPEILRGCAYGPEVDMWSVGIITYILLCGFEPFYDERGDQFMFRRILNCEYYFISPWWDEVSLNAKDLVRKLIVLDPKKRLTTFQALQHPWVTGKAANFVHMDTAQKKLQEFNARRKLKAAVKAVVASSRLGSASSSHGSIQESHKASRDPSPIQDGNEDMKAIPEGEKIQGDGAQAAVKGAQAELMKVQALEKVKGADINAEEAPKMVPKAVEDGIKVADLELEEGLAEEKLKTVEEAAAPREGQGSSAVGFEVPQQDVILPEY

[3] = tested on: Epidermal growth factor receptor (Homo sapiens), P00533 [UNDEFINED MUTATION]
Epidermal growth factor receptor (Homo sapiens), P00533 [UNDEFINED MUTATION], sequence (P00533 whole entry, looked up, change not shown): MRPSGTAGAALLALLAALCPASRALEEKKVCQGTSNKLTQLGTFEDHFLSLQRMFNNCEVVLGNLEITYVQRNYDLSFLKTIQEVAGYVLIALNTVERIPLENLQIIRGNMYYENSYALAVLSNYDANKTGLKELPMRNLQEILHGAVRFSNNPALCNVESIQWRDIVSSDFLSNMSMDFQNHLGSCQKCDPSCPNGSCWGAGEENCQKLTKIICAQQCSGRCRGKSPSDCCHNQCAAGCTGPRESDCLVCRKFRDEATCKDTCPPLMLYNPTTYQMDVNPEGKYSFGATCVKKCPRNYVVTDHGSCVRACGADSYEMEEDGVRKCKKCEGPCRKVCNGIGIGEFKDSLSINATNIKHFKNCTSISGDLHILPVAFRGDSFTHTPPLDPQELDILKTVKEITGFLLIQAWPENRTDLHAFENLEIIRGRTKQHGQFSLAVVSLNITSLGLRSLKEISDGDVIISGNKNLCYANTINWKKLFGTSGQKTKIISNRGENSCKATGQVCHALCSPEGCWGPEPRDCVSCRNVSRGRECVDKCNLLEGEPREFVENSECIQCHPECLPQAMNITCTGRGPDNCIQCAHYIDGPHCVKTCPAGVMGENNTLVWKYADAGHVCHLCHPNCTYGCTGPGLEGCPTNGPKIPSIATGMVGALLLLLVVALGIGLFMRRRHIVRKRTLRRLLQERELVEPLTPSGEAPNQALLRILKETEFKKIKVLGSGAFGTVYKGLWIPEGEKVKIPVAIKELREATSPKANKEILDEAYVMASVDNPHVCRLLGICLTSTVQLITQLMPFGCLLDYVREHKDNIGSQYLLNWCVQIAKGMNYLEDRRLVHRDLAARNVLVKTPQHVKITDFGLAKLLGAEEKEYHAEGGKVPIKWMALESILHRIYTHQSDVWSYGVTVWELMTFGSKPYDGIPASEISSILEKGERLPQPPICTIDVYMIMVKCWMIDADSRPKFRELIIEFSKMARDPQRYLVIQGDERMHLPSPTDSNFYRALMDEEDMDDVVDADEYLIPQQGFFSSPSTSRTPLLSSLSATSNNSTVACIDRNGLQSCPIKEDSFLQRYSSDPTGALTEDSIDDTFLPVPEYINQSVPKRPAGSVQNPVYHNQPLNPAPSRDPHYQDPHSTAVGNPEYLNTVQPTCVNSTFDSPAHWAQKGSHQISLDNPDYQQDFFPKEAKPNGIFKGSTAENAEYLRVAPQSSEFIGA

[4] = target: T2, Inhibitor of nuclear factor kappa-B kinase subunit epsilon (Homo sapiens) (UniProt Q14164)
T2 sequence (whole entry): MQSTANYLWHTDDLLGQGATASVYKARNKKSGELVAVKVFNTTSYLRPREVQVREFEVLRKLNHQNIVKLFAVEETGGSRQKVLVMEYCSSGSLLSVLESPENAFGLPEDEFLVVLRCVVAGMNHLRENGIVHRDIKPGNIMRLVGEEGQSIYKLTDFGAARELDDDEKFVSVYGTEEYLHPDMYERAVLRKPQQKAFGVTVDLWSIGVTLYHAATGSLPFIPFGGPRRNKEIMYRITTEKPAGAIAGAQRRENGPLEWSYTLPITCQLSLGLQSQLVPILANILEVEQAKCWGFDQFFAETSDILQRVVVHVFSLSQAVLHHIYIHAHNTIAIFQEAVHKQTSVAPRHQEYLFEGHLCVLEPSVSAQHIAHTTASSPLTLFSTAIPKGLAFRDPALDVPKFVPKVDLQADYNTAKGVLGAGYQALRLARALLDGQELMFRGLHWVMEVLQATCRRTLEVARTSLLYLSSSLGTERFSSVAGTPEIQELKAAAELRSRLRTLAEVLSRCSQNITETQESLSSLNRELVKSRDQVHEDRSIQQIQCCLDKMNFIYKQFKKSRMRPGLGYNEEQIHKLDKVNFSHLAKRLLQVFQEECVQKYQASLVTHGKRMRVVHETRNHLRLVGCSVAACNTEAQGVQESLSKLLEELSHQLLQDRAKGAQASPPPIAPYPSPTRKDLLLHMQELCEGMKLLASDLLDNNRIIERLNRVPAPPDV

[5] = target: T3, Myosin-IIIb (Homo sapiens) (UniProt Q8WXR4)
T3 sequence (whole entry): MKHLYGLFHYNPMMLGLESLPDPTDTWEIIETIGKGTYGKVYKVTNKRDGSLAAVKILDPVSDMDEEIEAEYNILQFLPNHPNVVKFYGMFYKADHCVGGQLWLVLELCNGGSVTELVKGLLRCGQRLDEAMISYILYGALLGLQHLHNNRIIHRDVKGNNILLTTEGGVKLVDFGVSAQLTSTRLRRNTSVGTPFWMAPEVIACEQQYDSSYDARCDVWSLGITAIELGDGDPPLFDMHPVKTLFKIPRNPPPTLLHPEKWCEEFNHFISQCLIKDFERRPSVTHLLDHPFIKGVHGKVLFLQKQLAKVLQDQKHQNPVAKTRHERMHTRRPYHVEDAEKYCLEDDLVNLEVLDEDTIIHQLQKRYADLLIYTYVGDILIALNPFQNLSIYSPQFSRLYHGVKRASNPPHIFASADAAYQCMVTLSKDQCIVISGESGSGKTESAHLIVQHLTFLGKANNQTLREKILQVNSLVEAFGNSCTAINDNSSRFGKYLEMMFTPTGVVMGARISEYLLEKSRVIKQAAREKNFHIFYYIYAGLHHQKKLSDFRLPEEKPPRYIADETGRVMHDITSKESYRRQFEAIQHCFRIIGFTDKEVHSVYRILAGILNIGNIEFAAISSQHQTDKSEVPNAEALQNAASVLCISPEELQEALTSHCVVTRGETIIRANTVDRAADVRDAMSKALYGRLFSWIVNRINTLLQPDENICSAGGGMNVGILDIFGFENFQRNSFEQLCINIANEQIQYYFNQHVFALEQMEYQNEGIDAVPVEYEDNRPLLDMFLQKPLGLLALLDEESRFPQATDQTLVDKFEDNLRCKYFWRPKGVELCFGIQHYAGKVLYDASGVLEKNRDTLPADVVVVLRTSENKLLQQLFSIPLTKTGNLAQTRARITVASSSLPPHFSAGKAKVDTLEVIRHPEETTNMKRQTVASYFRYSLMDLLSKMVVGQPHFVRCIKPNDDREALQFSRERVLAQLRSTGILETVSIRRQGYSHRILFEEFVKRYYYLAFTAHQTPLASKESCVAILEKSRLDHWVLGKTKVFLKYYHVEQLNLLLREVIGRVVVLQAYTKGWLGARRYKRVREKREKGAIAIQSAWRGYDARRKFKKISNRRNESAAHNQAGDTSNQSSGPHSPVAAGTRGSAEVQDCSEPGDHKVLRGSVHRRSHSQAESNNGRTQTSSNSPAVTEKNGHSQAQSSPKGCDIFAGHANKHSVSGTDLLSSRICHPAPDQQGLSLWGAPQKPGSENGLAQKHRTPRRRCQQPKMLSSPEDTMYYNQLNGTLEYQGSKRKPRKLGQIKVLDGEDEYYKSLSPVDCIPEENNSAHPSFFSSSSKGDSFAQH

[6] = target: Serine/threonine-protein kinase 38-like (Homo sapiens) (UniProt Q9Y2H1)
Serine/threonine-protein kinase 38-like (Homo sapiens), sequence (Q9Y2H1 2-464 limits assumed): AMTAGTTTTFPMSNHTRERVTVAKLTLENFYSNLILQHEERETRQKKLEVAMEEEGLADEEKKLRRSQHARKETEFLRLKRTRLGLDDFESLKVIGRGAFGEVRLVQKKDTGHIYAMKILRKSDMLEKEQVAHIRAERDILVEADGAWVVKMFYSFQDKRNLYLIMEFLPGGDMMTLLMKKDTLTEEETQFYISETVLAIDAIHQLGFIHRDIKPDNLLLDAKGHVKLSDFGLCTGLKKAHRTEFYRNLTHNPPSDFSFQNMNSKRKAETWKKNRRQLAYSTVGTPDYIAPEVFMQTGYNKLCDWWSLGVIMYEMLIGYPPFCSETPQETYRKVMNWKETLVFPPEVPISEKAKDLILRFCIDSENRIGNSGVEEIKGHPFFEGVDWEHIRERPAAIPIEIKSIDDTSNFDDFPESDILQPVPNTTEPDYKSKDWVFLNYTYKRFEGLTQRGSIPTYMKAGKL

[7] = target: Phosphatidylinositol 4-kinase beta (Homo sapiens) (UniProt Q9UBF8)
Phosphatidylinositol 4-kinase beta (Homo sapiens), sequence (Q9UBF8 2-816 limits assumed): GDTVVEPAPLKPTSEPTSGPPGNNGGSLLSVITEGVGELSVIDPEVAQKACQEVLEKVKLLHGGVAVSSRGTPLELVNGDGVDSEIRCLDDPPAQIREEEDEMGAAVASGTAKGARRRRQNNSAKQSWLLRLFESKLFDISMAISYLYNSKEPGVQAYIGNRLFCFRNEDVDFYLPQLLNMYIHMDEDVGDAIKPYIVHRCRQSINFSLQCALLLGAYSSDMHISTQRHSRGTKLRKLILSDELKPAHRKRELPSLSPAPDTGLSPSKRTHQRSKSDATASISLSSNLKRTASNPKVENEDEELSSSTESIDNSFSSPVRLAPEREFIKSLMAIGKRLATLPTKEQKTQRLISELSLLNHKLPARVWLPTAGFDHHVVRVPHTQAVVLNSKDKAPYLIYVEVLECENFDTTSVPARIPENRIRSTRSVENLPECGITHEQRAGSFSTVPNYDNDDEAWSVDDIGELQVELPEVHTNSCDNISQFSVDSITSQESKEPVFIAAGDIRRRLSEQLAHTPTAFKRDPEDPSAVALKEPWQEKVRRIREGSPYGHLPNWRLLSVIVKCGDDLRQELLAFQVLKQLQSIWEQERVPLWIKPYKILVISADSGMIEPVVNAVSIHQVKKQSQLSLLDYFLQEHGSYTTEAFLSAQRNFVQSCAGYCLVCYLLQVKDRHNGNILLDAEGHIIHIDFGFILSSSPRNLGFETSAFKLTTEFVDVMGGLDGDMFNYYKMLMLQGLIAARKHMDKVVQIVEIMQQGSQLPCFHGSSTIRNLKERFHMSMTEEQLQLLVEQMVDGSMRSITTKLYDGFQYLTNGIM

[8] = target: Uncharacterized serine/threonine-protein kinase SBK3 (Homo sapiens) (UniProt P0C264)
Uncharacterized serine/threonine-protein kinase SBK3 (Homo sapiens), sequence (P0C264 whole entry): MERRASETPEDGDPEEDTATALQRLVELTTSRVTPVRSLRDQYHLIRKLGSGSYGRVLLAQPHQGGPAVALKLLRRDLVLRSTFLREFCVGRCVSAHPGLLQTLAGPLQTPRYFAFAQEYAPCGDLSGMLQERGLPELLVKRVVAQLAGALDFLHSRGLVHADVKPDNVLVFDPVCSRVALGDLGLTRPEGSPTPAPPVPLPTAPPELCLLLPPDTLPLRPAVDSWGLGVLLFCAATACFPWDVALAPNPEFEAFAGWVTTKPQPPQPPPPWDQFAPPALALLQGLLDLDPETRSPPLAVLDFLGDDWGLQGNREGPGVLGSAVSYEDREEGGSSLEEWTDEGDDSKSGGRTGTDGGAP

Structure (SMILES)	residual activity [1] [%]	residual activity [2] [%]	residual activity [3] [%]	residual activity [4] [%]	residual activity [5] [%]	residual activity [6] [%]	residual activity [7] [%]	residual activity [8] [%]
CC1=C(C#N)C(c2ccc3c(c2)c(NC(=O)c2ccccc2C)nn3C)C(C#N)=C(C)N1 [BAY-974]	88	70	88	100	100	98	30	100
CCc1ccccc1C(=O)Nc1n[nH]c2c(C)c(F)c(C3C(C#N)=C(C)N(C)C(C)=C3C#N)cc12 [BAY-3827]	100	56	52	68	77	82	100	73
